For series [1], the target named is T1, human NHE-3 protein (expressed in the LAP1 cell line) (Homo sapiens, UniProt P48764).
T1 construct: expressed in transfected cells; host or cells: LAP1 cell line
T1 sequence (P48764 26-834): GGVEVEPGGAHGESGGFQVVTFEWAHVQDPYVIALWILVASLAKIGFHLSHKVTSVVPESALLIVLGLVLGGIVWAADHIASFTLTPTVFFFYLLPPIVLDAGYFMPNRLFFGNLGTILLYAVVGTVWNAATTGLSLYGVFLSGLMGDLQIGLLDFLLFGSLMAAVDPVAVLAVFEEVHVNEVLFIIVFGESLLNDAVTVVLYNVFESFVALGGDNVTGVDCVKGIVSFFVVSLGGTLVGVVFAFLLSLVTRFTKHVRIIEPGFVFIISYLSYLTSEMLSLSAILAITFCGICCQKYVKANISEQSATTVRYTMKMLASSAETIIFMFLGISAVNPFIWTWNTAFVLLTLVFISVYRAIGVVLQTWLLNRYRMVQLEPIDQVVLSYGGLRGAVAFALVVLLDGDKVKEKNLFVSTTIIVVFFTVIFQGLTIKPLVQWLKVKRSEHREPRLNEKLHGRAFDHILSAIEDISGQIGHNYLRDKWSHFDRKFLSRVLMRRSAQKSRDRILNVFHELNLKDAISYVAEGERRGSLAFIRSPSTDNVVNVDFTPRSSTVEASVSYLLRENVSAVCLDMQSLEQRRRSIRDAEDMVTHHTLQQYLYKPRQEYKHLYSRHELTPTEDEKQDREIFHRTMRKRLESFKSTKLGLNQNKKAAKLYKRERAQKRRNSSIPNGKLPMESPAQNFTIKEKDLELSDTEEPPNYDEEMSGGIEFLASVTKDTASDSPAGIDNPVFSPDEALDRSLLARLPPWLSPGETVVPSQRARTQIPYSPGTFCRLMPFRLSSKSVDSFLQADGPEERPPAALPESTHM
The experiment in a line: Inhibition of sodium/proton exchanger subtype 3: recovery of intracellular pH after acidification (BCECF fluorescence). It is filed as cell-based. The conditions noted are these: pHi recovery as percentage of the maximum recovery, read-out: remaining activity of hNHE3. How it is done:
Biological testing of the novel compounds was accomplished by measuring inhibition of the sodium/proton exchanger subtype 3.
The remaining activity of the human NHE-3 protein (expressed in the LAP1 cell line) was determined by measuring the recovery in the intracellular pH (pHi) after an acidification, which starts when the NHE is capable of functioning, even under bicarbonate-free conditions. For this purpose, the pHi was determined using the pH-sensitive fluorescent dye BCECF (Calbiochem, the precursor BCECF-AM is employed). The cells were initially loaded with BCECF. […] The intracellular acidification was induced by addition of 975 μl of an NH4Cl-free buffer (see below) to 25 μl aliquots of the cells incubated in NH4Cl buffer. The subsequent rate of pH recovery was recorded for 3 minutes. To calculate the inhibitory power of the substances tested, the cells were initially investigated in buffers in which complete or absolutely no pH recovery took place. […] Test solutions of the substances of interest were made up in the Na^+-containing buffer. Recovery of the intracellular pH at the tested concentration of a substance was expressed as a percentage of the maximum recovery.

Where a name gives a salt, the structure may show the parent alone. Bounds are passed on as bounds.

From US6339077B1, “Substituted 4-benzylaminoquinolines and their hetero analogs, process for their preparation, pharmaceuticals containing these compounds and use thereof” (Aventis Pharma Deutschland GmbH, priority 1999, dated 2002) come the findings set out here.

One may read the melting point as the temperature, or range, at which the solid turns liquid. `COC(=O)c1c(C)nc2ccc(CCC3(O)CCC4(C)C(CC(O)C5C4CC(O)C4(C)C5CC[C@@H]4C(C)CCC(=O)O)C3)cc2c1NCc1ccccc1` (some centres unmarked): the melting point is > 185 °C (dec.).
Still for that read-out and setting: the figure for `COC(=O)c1c(C)nc2cccc(C)c2c1NCc1ccc(CCC2(O)CCC3(C)C(CC(O)C4C3CC(O)C3(C)C4CC[C@@H]3C(C)CCC(=O)O)C2)cc1` (some centres unmarked) is > 180 °C (dec.).
`CCc1nc2ccccc2c(NCc2ccc(CCC3(O)CCC4(C)C(CC(O)C5C4CC(O)C4(C)C5CC[C@@H]4C(C)CCC(=O)O)C3)cc2)c1C(=O)OC` (some centres unmarked): the melting point is > 190 °C (dec.).
`Cc1nc2ccccc2c(NCc2ccccc2)c1C(=O)NCCOC1CCC2(C)C(C1)CC(O)C1C2CC(O)C2(C)C1CC[C@@H]2C(C)CCC(=O)O` (some centres unmarked): the melting point worked out at 143 °C.
As for `Cc1nc2ccccc2c(NCc2ccc(C#CC3(O)CCC4(C)C(CC(O)C5C4CC(O)C4(C)C5CC[C@@H]4C(C)CCC(=O)O)C3)cc2)c1C(=O)OC(C)C` (some centres unmarked), the melting point amounted to 150 °C.
As for `COC(=O)c1c(C)nc2ccc(C#CC3(O)CCC4(C)C(CC(O)C5C4CC(O)C4(C)C5CC[C@@H]4C(C)CCC(=O)O)C3)cc2c1NCc1ccccc1` (some centres unmarked), the melting point is 223 °C (dec.).
Same read-out and setting: the figure for `Cc1nc2ccccc2c(NCc2ccccc2)c1C(=O)NCCOC1CCC2(C)C(C1)CC(O)C1C2CC(O)C2(C)C1CC[C@@H]2C(C)CCC(=O)NCCS(=O)(=O)O` (some centres unmarked) (as salt: trifluoroacetate) is 180 °C.
In general, remaining activity refers to the share of the control activity or signal that is left under treatment. In turn, `COC(=O)c1c(C)nc2cccc(C)c2c1NCc1ccc(C#CC2(O)CCC3(C)C(CC(O)C4C3CC(O)C3(C)C4CC[C@@H]3C(C)CCC(=O)O)C2)cc1` (stereo partly drawn) [Example 11, Methyl 2,5-dimethyl-4-{4-[1-(3α,7α,12α-trihydroxy-10β,13β-dimethyl-17β-(3-carboxy-1-methylpropyl)hexadecahydrocyclopenta[a]phenanthren-3-yl)ethyn-2-yl]benzylamino}quinoline-3-carboxylate] gave a melting point greater than 155 °C. The remaining activity at 30 µM in series [1] is 61%.
Regarding `CC(=O)c1c(C)nc2ccccc2c1NCc1cccc(C#CC2(O)CC[C@@]3(C)C(CC(O)C4C3CC(O)[C@@]3(C)C4CC[C@@H]3[C@H](C)CCC(=O)O)C2)c1` (stereo partly drawn) [Example 13, 2-Methyl-3-acetyl-4-{3-[1-(3α,7α,12α-trihydroxy-10β,13β-dimethyl-17β-(3-carboxy-1-methylpropyl)hexadecahydrocyclopenta[a]phenanthren-3-yl)ethyn-2-yl]benzylamino}quinoline], the melting point is > 195 °C (dec.). Also, the remaining activity at 30 µM in series [1] is 40%.
`CC(=O)c1c(C)nc2ccccc2c1NCc1cccc(CCC2(O)CC[C@@]3(C)C(CC(O)C4C3CC(O)[C@@]3(C)C4CC[C@@H]3[C@H](C)CCC(=O)O)C2)c1` (stereo partly drawn) [Example 14, 2-Methyl-3-acetyl-4-{3-[1-(3α,7α,12α-trihydroxy-10β,13β-dimethyl-17β-(3-carboxy-1-methylpropyl)hexadecahydrocyclopenta[a]phenanthren-3-yl)eth-2-yl]benzylamino}quinoline]: the melting point is > 170 °C (dec.). Also, the remaining activity at 30 µM in series [1] came to 52%.
In the same order, the values of `CC(=O)c1c(C)nc2ccccc2c1NCc1ccc(C(=O)NCCO[C@H]2CC[C@@]3(C)C(C2)C[C@@H](O)C2C3C[C@H](O)[C@@]3(C)C2CC[C@@H]3[C@H](C)CCC(=O)O)cc1` (stereo partly drawn) [Example 20, 4-[3β-(2-{4-[(3-Acetyl-2-methylquinolin-4-ylamino)methyl]benzoylamino)-ethoxy)-7α,12α-dihydroxy-10β,13β-dimethylhexadecahydrocyclopenta[a]phenanthren-17β-yl]pentanoic acid] are > 145 °C (dec.) and 56%.
As to `CC(=O)c1c(NCc2ccc(C#CC3(O)CC[C@@]4(C)C(CC(O)C5C4CC(O)[C@@]4(C)C5CC[C@@H]4[C@H](C)CCC(=O)O)C3)cc2)cc(C)nc1C` (stereo partly drawn) [Example 30, 2,6-Dimethyl-3-acetyl-4-{4-[1-(3α,7α,12α-trihydroxy-10β,13β-dimethyl-17β-(3-carboxy-1-methylpropyl)hexadecahydrocyclopenta[a]phenanthren-3-yl)ethyn-2-yl]benzylamino}pyridine], the remaining activity at 30 µM in series [1] is 48%.
As for `CC(=O)c1c(NCc2ccc(CCC3(O)CC[C@@]4(C)C(CC(O)C5C4CC(O)[C@@]4(C)C5CC[C@@H]4[C@H](C)CCC(=O)O)C3)cc2)cc(C)nc1C` (stereo partly drawn) [Example 31, 2,6-Dimethyl-3-acetyl-4-{4-[1-(3α,7α,12α-trihydroxy-10β,13β-dimethyl-17β-(3-carboxy-1-methylpropyl)hexadecahydrocyclopenta[a]phenanthren-3-yl)eth-2-yl]benzylamino}pyridine], in series [1], the remaining activity at 30 µM was 69%.
